Experimental findings from patent US9096605B2, “Pyrazolopyrimidine derivatives as PI3 kinase inhibitors” (GlaxoSmithKline LLC, priority 2011, dated 2015) are described below.

Where a name gives a salt, the structure may show the parent alone.

Test [1] deals with pAKT(Ser473) in MDA-MB-468 cells. Nature of the test: pAKT(Ser473) assay in MDA-MB-468 cells. The test is classed as cell-based. The conditions noted are these: Homo sapiens, 0.5 h, compound treatment 30 minutes, MSD ELISA phospho AKT(Ser473), given as ranges, read-out: Cell Activity—pAKT IC50 in MDA-MB-468. How it is done: pAKT(Ser473) Assay in MDA-MB-468 Cells
MDA-MB-468 cells were plated in 384-well flat clear bottom tissue culture plates (Corning #3701) at a density of 5000 cells per 0.057 cm2 in 48 ul of RPMI 1640 media supplemented with 10% fetal bovine serum (FBS). Cells were seeded with a Wellmate liquid handler (Matrix). Columns 1 through 23 were plated with cells and column 24 contained media alone. Cells were incubated at 37° C. with 5% CO2 for approximately 16-20 hours. Duplicate compound plates were prepared in 384-well polypropylene V-Bottom plates (Greiner #781280).
Compound titrations were made across the columns (A1-A20). 20 ul of compound was added to the first column and diluted into a 20 point curve with dimethylsulfoxide (DMSO, Thermo #TS2064) using a 2-fold dilution factor with a liquid handling robot (Hamilton). Columns 22 through 24 contained DMSO alone. Titrations were diluted 682-fold for compound treatment with 4 ul of compound added to 105 ul of RPMI media. Two ul of the diluted compound was added to the cell plates containing 48 ul of media using a multimek robot (Beckman Coulter). Final DMSO concentrations were 0.15%. Cells were treated with compound for 30 minutes at 37° C. with 5% CO2.
Following incubation, media was aspirated from dosed cell plates using an ELx405 plate washer (Bio-Tek) and 25 ul of 4° C. Meso Scale Discovery (MSD) lysis buffer with the addition of protease and phosphatase inhibitors (supplied in MSD kit #N31CB-1) was added to each well using a multidrop combi (Thermo). Precoated 4-spot per well MSD ELISA plates coated with total and phospho AKT(Ser473) antibody and BSA (supplied in kit) were blocked for 1 hour at room temperature with 35 ul per well of 1× MSD wash buffer+3% BSA (supplied in kit).
Blocked plates were washed 4 times with 100 ul per well of 1× Tris wash buffer (supplied in MSD kit) using an Elx405 plate washer (Bio-Tek). To each well, 20 ul of cell lysate was added using a multimek robot (Beckman Coulter) and the plate incubated at 4° C. overnight (˜12-24 hours). Following incubation, the ELISA plates were washed 4 times (100 ul/well) with 1× Tris wash buffer. Twenty microliters per well of 1× detection antibody (supplied in MSD kit) was added using a multidrop combi (Thermo), followed by a 2 hour incubation at room temperature. Detection antibody was aspirated and the plates washed 4 times (100 ul/well) with 1× Tris wash buffer. Read Buffer (supplied in MSD kit) was added at 1× (35 ul/well) at room temperature using a multidrop (Thermo). Relative luminescence units (RLU) were determined using a SECTOR™ Imager 6000 with MSD Workbench Software.
Concentration Response Curves for pAKT(Ser473):
For analysis of the pAKT(Ser473) concentration response curves, the data was normalized using Phospho AKT values divided by the sum of corresponding Total AKT and Phospho AKT values. The normalized values are plotted as the percent of the DMSO-treated control values on the corresponding plate. To determine IC50 values, the data is fit to a 4 parameter nonlinear sigmoidal dose response (variable slope) using GraphPad Prism version 4 for Windows, (GraphPad Software, San Diego Calif. USA). Criteria for curve fitting and IC50 determination include that the IC50 values from duplicate runs must be within 2 to 3-fold of each other, the Y min must be less than or equal to 30% of the DMSO-treated control and the Y max must range between 80-120%. Any data point equal to or greater than 40% of the curve was not utilized.
For orientation: In an ELISA, binding on a coated surface is turned into a signal by an enzyme label.

The target in another test is T1, PI3K-beta (Homo sapiens, UniProt P42338).
T1 construct: made in house
The test is described as follows: HTRF in vitro profiling assay for PI3K inhibition (beta isoform). The format is biochemical. The settings on record: PI3K-beta enzyme pIC50 range, 200 pM enzyme, 100 uM ATP, 10 uM PIP2, 150 mM NaCl, corrected pIC50, read-out: PI3K-b Enz Activity. The source says: HTRF In Vitro Profiling Assays for PI3K Inhibition
The PI3-Kinase profiling assays were developed to measure the compound-dependent inhibition of the alpha, beta, delta, and gamma isoforms of PI3K in an in vitro catalytic assay. This assay was developed and optimized from a kit produced by Upstate (Millipore catalog #33-017). Briefly, this procedure utilizes a pre-formed HTRF (Homogeneous Time-Resolved Fluorescence energy transfer) complex between four binding partners: 1) biotinylated PIP3, 2) GST tagged pleckstrin homology (PH) domain, 3) Europium labeled anti-GST monoclonal antibody, and 4) Streptavidin-Allophycocyanin (APC). The native PIP3 produced by PI 3-Kinase activity displaces biotin-PIP3 from the PH domain, resulting in the dissociation of the HTRF complex and a decrease in the fluorescence signal. The format of this assay is the same for all 4 isoforms of PI3K; the differences lie in the concentration of enzyme used to achieve the most robust signal. The alpha and delta assays are run at 400 pM enzyme; the beta assay is at 200 pM enzyme and the gamma assay is run at 1 nM enzyme. In addition, the alpha, beta and delta assays are run with 150 mM NaCl while the gamma assay is run in the absence of NaCl. The ATP concentration is 100 uM in the alpha, beta, and delta assays and 15 uM ATP in the gamma assay. All reactions are run at 10 uM PIP2
Compounds are serially diluted (3-fold in 100% DMSO) across a 384-well polypropylene mother plate from column 1 to column 12 and column 13 to column 24, to yield 11 concentrations for each test compound. Columns 6 and 18 contain only DMSO. Once titrations are made, […] is transferred to a 384-well low-volume assay plate (Greiner 784076). This assay plate contains three pharmacological controls (known PI3K inhibitors) and 3 assay controls: (1) Enzyme without inhibitor; (2) Buffer minus enzyme, and (3) Buffer minus enzyme plus native PIP3. DMSO is stamped into all wells of columns 6 and 18. PIP3 is added at 40 μM in 1× Reaction buffer (1 μL of 200 μM PIP3) to alternating rows of column 18 (wells 18 B, D, F, H, J, L, N, P). The no-enzyme control reactions are run in wells 18 A, C, E, G, I, K, M, O (0.1 μL of 100% DMSO).
The PI3-Kinase profiling assay was optimized using the HTRF kit provided by Upstate (Millipore). The assay kit contains seven reagents: 1) 4× Reaction Buffer; 2) native PIP2 (substrate); 3) Stop A (EDTA); 4) Stop B (Biotin-PIP3); 5) Detection Mix A (Streptavidin-APC); 6) Detection Mix B (Eu-labeled Anti-GST plus GST-tagged PH-domain); 7) Detection Mix C (KF). In addition, the following items were obtained or purchased: PI3Kinase (prepared by GSK BR&AD), dithiothreitol (Sigma, D-5545), Adenosine-5′-triphosphate (ATP, Teknova cat. # A0220), native PIP3 (1,2-dioctanoyl-sn-glycero-3-[phosphoinositil-3,4,5-triphosphate]tetraammonium salt (Avanti polar lipids, 850186P), DMSO (Sigma, 472301).
PI3Kinase Reaction Buffer is prepared by diluting the stock 1:4 with de-ionized water. Freshly prepared DTT is added at a final concentration of 5 mM on the day of use. Enzyme addition and compound pre-incubation are initiated by the addition of 2.5 μL of PI3K (at twice its final concentration) in 1× reaction buffer to all wells using a Multidrop Combi. Plates are incubated at room temperature for 15 minutes. Reactions are initiated by addition of 2.5 μL of 2× substrate solution (PIP2 and ATP in 1× reaction buffer) using a Multidrop Combi. Plates are incubated at room temperature for one hour. Reactions are quenched by the addition of 2.5 μL of stop solution (Stop A and Stop B pre-mixed at a ratio of 5:1, respectively) to all wells using the Multidrop Combi. […]
Background: In TR-FRET formats the signal depends on donor and acceptor labels being close together.

T1 sequence (P42338 whole entry): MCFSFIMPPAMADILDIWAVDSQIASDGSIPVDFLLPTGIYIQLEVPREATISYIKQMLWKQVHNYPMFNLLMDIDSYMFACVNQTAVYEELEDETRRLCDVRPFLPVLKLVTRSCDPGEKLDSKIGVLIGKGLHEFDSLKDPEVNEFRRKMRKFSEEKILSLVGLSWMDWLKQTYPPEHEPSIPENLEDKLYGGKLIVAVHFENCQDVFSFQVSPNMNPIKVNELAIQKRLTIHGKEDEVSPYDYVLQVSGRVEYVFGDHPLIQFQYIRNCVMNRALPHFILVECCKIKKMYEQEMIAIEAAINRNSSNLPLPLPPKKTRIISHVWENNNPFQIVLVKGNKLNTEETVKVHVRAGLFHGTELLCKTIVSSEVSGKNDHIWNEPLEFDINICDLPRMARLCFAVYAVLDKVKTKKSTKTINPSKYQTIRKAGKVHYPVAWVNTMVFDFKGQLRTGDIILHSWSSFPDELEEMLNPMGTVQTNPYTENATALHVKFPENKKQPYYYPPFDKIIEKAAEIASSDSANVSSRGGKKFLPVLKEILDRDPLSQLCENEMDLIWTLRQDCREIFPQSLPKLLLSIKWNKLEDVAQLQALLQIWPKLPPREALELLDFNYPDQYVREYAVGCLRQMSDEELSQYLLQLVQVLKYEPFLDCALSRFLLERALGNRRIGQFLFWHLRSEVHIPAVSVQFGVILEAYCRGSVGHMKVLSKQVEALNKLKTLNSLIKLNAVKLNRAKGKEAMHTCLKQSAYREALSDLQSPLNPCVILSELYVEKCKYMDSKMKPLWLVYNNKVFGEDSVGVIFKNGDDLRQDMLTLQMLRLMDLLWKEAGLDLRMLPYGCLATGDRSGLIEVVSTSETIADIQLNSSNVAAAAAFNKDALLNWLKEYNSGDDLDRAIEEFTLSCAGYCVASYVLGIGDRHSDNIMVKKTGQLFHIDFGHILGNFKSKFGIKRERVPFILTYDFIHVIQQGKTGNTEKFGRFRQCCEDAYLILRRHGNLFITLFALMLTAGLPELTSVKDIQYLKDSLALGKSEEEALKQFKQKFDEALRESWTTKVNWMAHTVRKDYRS
T1 sequence (P27986 whole entry partner): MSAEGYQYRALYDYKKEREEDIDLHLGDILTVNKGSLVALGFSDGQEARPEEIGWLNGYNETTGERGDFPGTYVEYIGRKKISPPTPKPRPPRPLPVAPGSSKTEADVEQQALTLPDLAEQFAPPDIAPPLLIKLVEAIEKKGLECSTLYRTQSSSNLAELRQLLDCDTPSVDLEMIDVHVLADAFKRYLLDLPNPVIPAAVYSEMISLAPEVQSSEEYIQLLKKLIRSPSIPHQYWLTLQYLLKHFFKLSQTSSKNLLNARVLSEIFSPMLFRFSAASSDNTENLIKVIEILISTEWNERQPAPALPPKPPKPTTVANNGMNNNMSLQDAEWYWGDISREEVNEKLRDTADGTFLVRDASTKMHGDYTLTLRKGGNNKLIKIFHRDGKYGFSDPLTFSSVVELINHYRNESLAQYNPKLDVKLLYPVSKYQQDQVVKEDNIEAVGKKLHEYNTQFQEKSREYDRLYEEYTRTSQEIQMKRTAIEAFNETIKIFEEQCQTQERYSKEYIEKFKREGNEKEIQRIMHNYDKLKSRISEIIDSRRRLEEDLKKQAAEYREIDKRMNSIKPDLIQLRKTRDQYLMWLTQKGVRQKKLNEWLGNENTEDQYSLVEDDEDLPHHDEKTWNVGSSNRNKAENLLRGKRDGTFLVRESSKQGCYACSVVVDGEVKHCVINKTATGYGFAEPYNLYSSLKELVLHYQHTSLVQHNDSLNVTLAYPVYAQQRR

In the case of `Cc1c(Cc2cnn3c(O)cc(N4CCOCC4)nc23)cccc1C(F)(F)F` [Example 11, 3-(2-methyl-3-(trifluoromethyl)benzyl)-5-morpholinopyrazolo[1,5-a]pyrimidin-7-ol], the IC50 in test [1] is 1 to 5 µM; on PI3K-beta, 0.00126 to 0.01 µM.
As to `Cc1c(Cc2cnn3c(O)cc(-c4ccncc4)nc23)cccc1C(F)(F)F` [Example 13, 3-(2-methyl-3-(trifluoromethyl)benzyl)-5-(pyridin-4-yl)pyrazolo[1,5-a]pyrimidin-7-ol], the IC50 in test [1] was 1 to 5 µM; on PI3K-beta, 0.00126 to 0.01 µM.
The like results for `Cc1cccc(Cc2cnn3c(O)cc(-c4ccncc4)nc23)c1C` [Example 14, 3-(2,3-dimethylbenzyl)-5-(pyridin-4-yl)pyrazolo[1,5-a]pyrimidin-7-ol] were, in that order, 1 to 5 µM and 0.00126 to 0.01 µM.
In the case of `CCc1nn2c(O)cc(C3CCOCC3)nc2c1Cc1cccc(Cl)c1Cl` [Example 15, 3-(2,3-dichlorobenzyl)-2-ethyl-5-(tetrahydro-2H-pyran-4-yl)pyrazolo[1,5-a]pyrimidin-7-ol], the IC50 in test [1] was greater than 20 µM; at PI3K-beta, 0.00126 to 0.01 µM.
As for `Cc1nn2c(NC(N)=O)cc(N3CCOCC3)nc2c1Cc1cccc(C(F)(F)F)c1C` [Example 16, 1-(2-methyl-3-(2-methyl-3-(trifluoromethyl)benzyl)-5-morpholinopyrazolo[1,5-a]pyrimidin-7-yl)urea], the IC50 in test [1] was greater than 20 µM; on PI3K-beta, 0.0126 to 0.1 µM.
The matching figures for `Cc1nn2c(N)cc(N3CCOCC3)nc2c1Cc1cccc(C(F)(F)F)c1C` [Example 17, 2-methyl-3-(2-methyl-3-(trifluoromethyl)benzyl)-5-morpholinopyrazolo[1,5-a]pyrimidin-7-amine]: less than 1 µM and 0.0126 to 0.1 µM.
As for `Cc1c(Cc2c(O)nn3c(O)cc(C4CCOCC4)nc23)cccc1C(F)(F)F` [Example 19, 3-(2-methyl-3-(trifluoromethyl)benzyl)-5-(tetrahydro-2H-pyran-4-yl)pyrazolo[1,5-a]pyrimidine-2,7-diol], the values for the IC50 (in test [1]; on PI3K-beta) were greater than 20 µM and 0.0126 to 0.1 µM, respectively.
The like results for `Nc1cc(N2CCOCC2)nc2c(Cc3cccc(Cl)c3Cl)cnn12` [Example 20, 3-(2,3-dichlorobenzyl)-5-morpholinopyrazolo[1,5-a]pyrimidin-7-amine] were, in that order, less than 1 µM and 0.0126 to 0.1 µM.
For `Oc1nn2c(O)cc(-c3ccncc3)nc2c1Cc1ccccc1Cl` [Example 21, 3-(2-chlorobenzyl)-5-(pyridin-4-yl)pyrazolo[1,5-a]pyrimidine-2,7-diol], the results for the IC50 (in test [1]; at PI3K-beta) were greater than 20 µM and 0.126 to 1.26 µM, respectively.
For `Cc1nn2c(O)cc(N3CCOCC3)nc2c1Cc1cccc2ccccc12` [Example 22, 2-methyl-5-morpholino-3-(naphthalen-1-ylmethyl)pyrazolo[1,5-a]pyrimidin-7-ol], the IC50 was 1 to 5 µM in test [1] and 0.000126 to 0.001 µM on PI3K-beta.
The like results for `Nc1nn2c(O)cc(N3CCOCC3)nc2c1Cc1cccc2ccccc12` [Example 23, 2-amino-5-morpholino-3-(naphthalen-1-ylmethyl)pyrazolo[1,5-a]pyrimidin-7-ol] were, in that order, less than 1 µM and 0.000126 to 0.001 µM.
The matching figures for `Cc1c(Cc2c(N)nn3c(O)cc(N4CCOCC4)nc23)cccc1C(F)(F)F` [Example 24, 2-amino-3-(2-methyl-3-(trifluoromethyl)benzyl)-5-morpholinopyrazolo[1,5-a]pyrimidin-7-ol]: less than 1 µM and 0.00126 to 0.01 µM.
The matching figures for `Cc1c(Cc2c(N)nn3c(O)cc(C4CCOCC4)nc23)cccc1C(F)(F)F` [Example 25, 2-amino-3-(2-methyl-3-(trifluoromethyl)benzyl)-5-(tetrahydro-2H-pyran-4-yl)pyrazolo[1,5-a]pyrimidin-7-ol]: less than 1 µM and 0.00126 to 0.01 µM.
As to `Nc1nn2c(O)cc(C3CCOCC3)nc2c1Cc1cccc(Cl)c1Cl` [Example 26, 2-amino-3-(2,3-dichlorobenzyl)-5-(tetrahydro-2H-pyran-4-yl)pyrazolo[1,5-a]pyrimidin-7-ol hydrochloride], the IC50 in test [1] lay in the range of 1 to 5 µM; at PI3K-beta it was 0.00126 to 0.01 µM.
The like results for `Cc1nn2c(N)cc(N3CCOCC3)nc2c1Cc1cccc2ccccc12` [Example 27, 2-methyl-5-morpholino-3-(naphthalen-1-ylmethyl)pyrazolo[1,5-a]pyrimidin-7-amine] were, in that order, less than 1 µM and 0.0126 to 0.1 µM.
Regarding `Cc1ccccc1Cc1c(C)nn2c(O)cc(-c3ccncc3)nc12` [Example 29, 2-methyl-3-(2-methylbenzyl)-5-(pyridin-4-yl)pyrazolo[1,5-a]pyrimidin-7-ol], the results for the IC50 (in test [1]; at PI3K-beta) were 1 to 5 µM and 0.00126 to 0.01 µM, respectively.
As for `Cc1nn2c(O)cc(-c3ccncc3)nc2c1Cc1cccc(Cl)c1Cl` [Example 30, 3-(2,3-dichlorobenzyl)-2-methyl-5-(pyridin-4-yl)pyrazolo[1,5-a]pyrimidin-7-ol], the IC50 in test [1] fell in the range of 6 to 10 µM; at PI3K-beta, 0.000126 to 0.001 µM.
